Source: patent publication US8871781B2, “Methods and compositions for treating a subject for a lymphatic malformation” (The Board of Trustees of the Leland Stanford Junior …, priority 2011, dated 2014)
Entries after “also recorded” stand apart in the source; their conditions may differ.

Legend:
Assay type in all cases: in vivo, human
[1] = test system: lymphatic malformation; assay: Index patient: infant with microcystic venolymphatic malformation given sildenafil for pulmonary hypertension
Source text: FIG. 1, Panels A-B depict pre- and post-treatment magnetic resonance imaging (MRI) contrast-enhanced images of a subject with a lymphatic malformation treated in accord with the subject methods. […] Contrast highlights the heart with right ventricular enlargement (dashed arrow), aorta, and pulmonary vessels.
An infant was born with massive enlargement of their right chest and arm. […], the infant developed tachypnea due to congestive heart failure and pulmonary edema. […] At 9 months, cardiac catheterization confirmed the diagnosis of idiopathic pulmonary hypertension and sildenafil was started (initially 0.5 mg/kg/dose TID and titrated to 0.75 mg/kg/dose TID). […] The post-MRI course was complicated by worsening cardiopulmonary interactions, respiratory failure and subsequent cardiac failure leading to their death.

[2] = test system: lymphatic malformations; assay: Pilot study: sildenafil for 12 weeks in two children with disabling LMs
Description: Based on the observation of marked regression in a lymphatic malformation after starting sildenafil, a pilot study to treat otherwise healthy children with LMs with sildenafil was approved by the Stanford University Human Research Protection Program (IRB). After informed consent was obtained, sildenafil (goal dose 1.0 mg/kg/dose TID) was administered to two children with disabling LMs for 12 weeks, and results are summarized in Table 1.

[3] = test system: lymphatic malformation; assay: Clinical trial: MRI before and after 20 weeks of sildenafil; conditions: for volume of the lymphatic malformation after 20 weeks: MRI; for decrease of the volume of the lymphatic malformation: over 20 weeks
Description: An additional 7 subjects were enrolled into a clinical trial. Sildenafil was administered substantially as described above in Examples 1-2. […] Three subjects completed the 20 week trial and had the follow up MRI completed; the remaining four subjects are still undergoing the trial.

[4] = Subject 1, LM of left orbit, upper and lower eyelids
[5] = Subject 2, LM of right axilla, after 12 weeks of treatment (FIG. 3, Panel B)
[6] = Subject 2, LM of right axilla, chest
[7] = Subject 2, LM of right upper back

CCCc1nn(C)c2c(=O)[nH]c(-c3cc(S(=O)(=O)N4CCN(C)CC4)ccc3OCC)nc12 [sildenafil]
MRI finding of the malformation after therapy ([1]; cardiac MRI (FIG. 1, Panel B)): minimal residual lymphatic malformation; also recorded: near complete resolution of the malformation | role of sildenafil in the patient's death ([1]; death from respiratory and cardiac failure): not thought to play a role in their death | skin examination of the malformation ([1]; four months after starting sildenafil): thin, bluish plaque and redundant tissue | change in size of the malformation ([1]; sildenafil, 0.5 titrated to 0.75 mg/kg/dose TID): gradually decreased in size | change of the lesion after stopping the medication ([2]; Subject 1): enlargement of the lesion | Adverse effects ([2]; Subject 1, 12 weeks of therapy): Loose yellow | clinical change of eyelid LM ([2]; Subject 1, after 3 weeks of therapy): improved eye opening and definition of the upper eyelid fold and superior palpebral sulcus | improvement of LM ([2]; Subject 1, at the end of treatment (12 weeks)): 25% | Change in LM 4 weeks after discontinuing therapy [2, 4]: Enlargement | Parent impression of change in LM after 12 weeks of therapy [2, 4]: Fair | Adverse effects ([2]; Subject 2, 12 weeks of therapy): None | consistency of the lesion [2, 5]: softer and saggier | reduction in diameter of the lesion [2, 5]: 1 cm | improvement of LMs ([2]; Subject 2, after 8 weeks of treatment): 50% | improvement of LMs ([2]; Subject 2, after 12 weeks of treatment): 75% | appearance of the large LM affecting the back ([2]; Subject 2, at the 12 week visit (FIG. 2, Panel C)): appeared deflated | change of the LMs after stopping the medication ([2]; Subject 2, four weeks after stopping (FIG. 2, Panel D)): mild enlargement | Change in LM 4 weeks after discontinuing therapy ([2]; Subject 2, LM of left forearm): Stable | Parent impression of change in LM after 12 weeks of therapy ([2]; Subject 2, LM of left forearm): Good | Change in LM 4 weeks after discontinuing therapy [2, 6]: Stable | Parent impression of change in LM after 12 weeks of therapy [2, 6]: Good | Change in LM 4 weeks after discontinuing therapy [2, 7]: Enlargement | Parent impression of change in LM after 12 weeks of therapy [2, 7]: Good | tolerability ([2]; two children, 12 weeks, goal dose 1.0 mg/kg/dose TID): tolerated without significant adverse effects | adverse events associated with the medication ([3]; 20 week trial): no adverse events | volume of the lymphatic malformation after 20 weeks ([3]; first subject evaluated, 186 cc before sildenafil): 174 cc | decrease of the volume of the lymphatic malformation ([3]; first subject evaluated, 186 cc to 174 cc): 6.45% | volume of the lymphatic malformation after 20 weeks ([3]; second subject evaluated, 46.5 cc before sildenafil): 42.7 cc | decrease of the volume of the lymphatic malformation ([3]; second subject evaluated, 46.5 cc to 42.7 cc): 8.17% | volume of the lymphatic malformation after 20 weeks ([3]; third subject evaluated, 56.246 cc before sildenafil): 51.732 cc | decrease of the volume of the lymphatic malformation ([3]; third subject evaluated, 56.246 cc to 51.732 cc): 8.03%
